Results from patent publication US9512142B2, “Tricyclic triazolic compounds” (LABORATORIOS DEL DR. ESTEVE S.A., priority 2013, dated 2016).
Read-outs that look alike come from different tables or passages of the source.

What was measured:
[1] = Kinetic solubility; format: physicochemical; details: kinetic from dmso stock, buffered aqueous solution at pH=7.4, 10 μL of 10 mM DMSO solution in 1 mL, stirred 4 hours, supernatant by liquid chromatography, read-out: Kin. Solub.
Protocol: To a buffered aqueous solution at pH=7.4 (1 mL), a 10 mM DMSO solution of the test compound (10 μL) was added and the mixture stirred for 4 hours. After centrifugation, the compound concentration in the supernatant was determined by liquid chromatography by fitting in a calibration curve of the compound.

[2] = biological target: T1, human sigma 1 receptor (Homo sapiens, UniProt Q99720); experiment: Human sigma 1 receptor radioligand assay ([3H](+)-pentazocine, transfected HEK-293 membranes); format: binding
T1 construct: expressed in transfected cells; host or cells: HEK-293
Protocol: Human Sigma 1 Receptor Radioligand Assay
The assay was carried out with 7 μg of membrane suspension, 5 nM of [^3H](+)-pentazocine in either absence or presence of either buffer or 10 μM Haloperidol for total and non-specific binding, respectively. Binding buffer contained Tris-HCl 50 mM at pH 8. Plates were incubated at 37° C. for 120 minutes. After the incubation period, the reaction mix was then transferred to MultiScreen HTS, FC plates (Millipore), filtered and plates were washed 3 times with ice-cold 10 mM Tris-HCL (pH7.4). Filters were dried and counted at approximately 40% efficiency in a MicroBeta scintillation counter (Perkin-Elmer) using EcoScint liquid scintillation cocktail.

[3] = 5 nM [3H](+)-pentazocine, transfected HEK-293 membranes, 37° C., 120 minutes, read-out: Ki
[4] = buffered aqueous solution, pH 7.4, aqueous buffer

T1 sequence (Q99720 whole entry): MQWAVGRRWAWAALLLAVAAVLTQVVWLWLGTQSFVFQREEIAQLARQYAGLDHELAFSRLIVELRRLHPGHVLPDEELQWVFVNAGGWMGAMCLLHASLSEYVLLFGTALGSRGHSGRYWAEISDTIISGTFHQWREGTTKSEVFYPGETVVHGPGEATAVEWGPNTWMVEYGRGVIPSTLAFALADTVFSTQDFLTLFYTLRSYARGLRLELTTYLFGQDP

| Compound | Ki [2, 3] | solubility at 4 h [1, 4] | solubility at 4 h ([1]; aqueous buffer) | Ki [2] |
| --- | --- | --- | --- | --- |
| Cl.Fc1ccccc1-c1nnn2c1CO[C@@H]1CN(Cc3ccncc3)C[C@H]12 (racemic) [Example 2, (5aRS,8aRS)-3-(2-fluorophenyl)-7-(pyridin-4-ylmethyl)-4,5a,6,7,8,8a-hexahydropyrrolo[3,4-b][1,2,3]triazolo[1,5-d][1,4]oxazine hydrochloride] | 315 nM |  | > 10 µM |  |
| Cl.Fc1ccc(-c2nnn3c2CO[C@@H]2CN(Cc4ccoc4)C[C@H]23)cc1 (racemic) [Example 21, (5aRS,8aRS)-3-(4-fluorophenyl)-7-(furan-3-ylmethyl)-4,5a,6,7,8,8a-hexahydropyrrolo[3,4-b][1,2,3]triazolo[1,5-d][1,4]oxazine hydrochloride] | 16.6 nM |  | > 10 µM |  |
| Cl.Fc1ccc(CN2C[C@@H]3[C@@H](C2)OCc2c(-c4ccncc4)nnn23)cc1 (racemic) [Example 26, (5aRS,8aRS)-7-(4-fluorobenzyl)-3-(pyridin-4-yl)-4,5a,6,7,8,8a-hexahydropyrrolo[3,4-b][1,2,3]triazolo[1,5-d][1,4]oxazine hydrochloride] | 133 nM |  | > 10 µM |  |
| Cl.Fc1ccc(-c2nnn3c2CO[C@H]2CN(C4CCOCC4)C[C@@H]23)cc1 [Example 4, (5aS,8aS)-3-(4-fluorophenyl)-7-(tetrahydro-2H-pyran-4-yl)-4,5a,6,7,8,8a-hexahydropyrrolo[3,4-b][1,2,3]triazolo[1,5-d][1,4]oxazine hydrochloride] | 23 nM |  | > 10 µM |  |
| COc1ccc(-c2nnn3c2CO[C@H]2CN(C4CCOCC4)C[C@@H]23)cn1.Cl [Example 8, (5aS,8aS)-3-(6-methoxypyridin-3-yl)-7-(tetrahydro-2H-pyran-4-yl)-4,5a,6,7,8,8a-hexahydropyrrolo[3,4-b][1,2,3]triazolo[1,5-d][1,4]oxazine hydrochloride] | 227 nM |  | > 10 µM |  |
| Cl.Fc1ccc(CN2C[C@@H]3[C@@H](C2)OCc2c(-c4ccccc4F)nnn23)cn1 [Example 11, (5aR,8aR)-3-(2-fluorophenyl)-7-((6-fluoropyridin-3-yl)methyl)-4,5a,6,7,8,8a-hexahydropyrrolo[3,4-b][1,2,3]triazolo[1,5-d][1,4]oxazine hydrochloride] | 241 nM |  | > 10 µM |  |
| Cl.Fc1ccccc1-c1nnn2c1CO[C@@H]1CN(C[C@@H]3CCOC3)C[C@H]12 [Example 16, (5aR,8aR)-3-(2-fluorophenyl)-7-(((S)-tetrahydrofuran-3-yl)methyl)-4,5a,6,7,8,8a-hexahydropyrrolo[3,4-b][1,2,3]triazolo[1,5-d][1,4]oxazine hydrochloride] | 97.6 nM | > 10 µM |  |  |
| Cl.Fc1ccccc1-c1nnn2c1CO[C@@H]1CN(C[C@H]3CCOC3)C[C@H]12 [Example 18, (5aR,8aR)-3-(2-fluorophenyl)-7-(((R)-tetrahydrofuran-3-yl)methyl)-4,5a,6,7,8,8a-hexahydropyrrolo[3,4-b][1,2,3]triazolo[1,5-d][1,4]oxazine hydrochloride] | 171 nM | > 10 µM |  |  |
| Cc1cc(CN2C[C@@H]3OCc4c(-c5ccc(F)cc5F)nnn4[C@H]3C2)c(C)o1.Cl [Example 22, (5aS,8aS)-3-(2,4-difluorophenyl)-7-((2,5-dimethylfuran-3-yl)methyl)-4,5a,6,7,8,8a-hexahydropyrrolo[3,4-b][1,2,3]triazolo[1,5-d][1,4]oxazine hydrochloride] | 119 nM | > 10 µM |  |  |
| Cl.c1ccc(-c2nnn3c2CO[C@H]2CN(C4CCOCC4)C[C@@H]23)nc1 [Example 31, (5aS,8aS)-3-(pyridin-2-yl)-7-(tetrahydro-2H-pyran-4-yl)-4,5a,6,7,8,8a-hexahydropyrrolo[3,4-b][1,2,3]triazolo[1,5-d][1,4]oxazine hydrochloride] |  |  | > 10 µM | 241 nM |
| Cl.c1ccc(CN2C[C@@H]3OCc4c(-c5ccccn5)nnn4[C@H]3C2)cc1 [Example 33, (5aS,8aS)-7-benzyl-3-(pyridin-2-yl)-4,5a,6,7,8,8a-hexahydropyrrolo[3,4-b][1,2,3]triazolo[1,5-d][1,4]oxazine hydrochloride] | 225 nM | > 10 µM |  |  |
| Cl.Fc1ccc(-c2nnn3c2CO[C@@H]2CN(Cc4ccc(F)nc4)C[C@H]23)c(Cl)c1 [Example 39, (5aR,8aR)-3-(2-chloro-4-fluorophenyl)-7-((6-fluoropyridin-3-yl)methyl)-4,5a,6,7,8,8a-hexahydropyrrolo[3,4-b][1,2,3]triazolo[1,5-d][1,4]oxazine hydrochloride] | 166 nM | > 10 µM |  |  |
| COc1ccc(CN2C[C@@H]3[C@@H](C2)OCc2c(-c4ccc(F)cc4Cl)nnn23)cn1.Cl [Example 49, (5aR,8aR)-3-(2-chloro-4-fluorophenyl)-7-((6-methoxypyridin-3-yl)methyl)-4,5a,6,7,8,8a-hexahydropyrrolo[3,4-b][1,2,3]triazolo[1,5-d][1,4]oxazine hydrochloride] | 112 nM | > 10 µM |  |  |

The next lines start with results.

| Ki [2, 3] | solubility at 4 h [1, 4] | Compound | solubility at 4 h ([1]; aqueous buffer) | Ki [2] |
| --- | --- | --- | --- | --- |
| 29.7 nM | > 10 µM | Cl.Fc1ccccc1-c1nnn2c1CO[C@H]1CN(C[C@H]3CCOC3)C[C@@H]12 [Example 15, (5aS,8aS)-3-(2-fluorophenyl)-7-(((R)-tetrahydrofuran-3-yl)methyl)-4,5a,6,7,8,8a-hexahydropyrrolo[3,4-b][1,2,3]triazolo[1,5-d][1,4]oxazine hydrochloride] |  |  |
| 49.2 nM | > 10 µM | Cl.Fc1ccccc1-c1nnn2c1CO[C@H]1CN(C[C@@H]3CCOC3)C[C@@H]12 [Example 17, (5aS,8aS)-3-(2-fluorophenyl)-7-(((S)-tetrahydrofuran-3-yl)methyl)-4,5a,6,7,8,8a-hexahydropyrrolo[3,4-b][1,2,3]triazolo[1,5-d][1,4]oxazine hydrochloride] |  |  |
| 83.3 nM | > 10 µM | CCOc1ccc(CN2C[C@@H]3[C@@H](C2)OCc2c(-c4ccccc4F)nnn23)cn1.Cl [Example 19, (5aR,8aR)-7-((6-ethoxypyridin-3-yl)methyl)-3-(2-fluorophenyl)-4,5a,6,7,8,8a-hexahydropyrrolo[3,4-b][1,2,3]triazolo[1,5-d][1,4]oxazine hydrochloride] |  |  |
| 41.9 nM | > 10 µM | Cc1cc(CN2C[C@@H]3[C@@H](C2)OCc2c(-c4ccc(F)cc4F)nnn23)c(C)o1.Cl [Example 23, (5aR,8aR)-3-(2,4-difluorophenyl)-7-((2,5-dimethylfuran-3-yl)methyl)-4,5a,6,7,8,8a-hexahydropyrrolo[3,4-b][1,2,3]triazolo[1,5-d][1,4]oxazine hydrochloride] |  |  |
| 20.4 nM | > 10 µM | Cl.Fc1ccc(-c2nnn3c2CO[C@H]2CN(C4CCOCC4)C[C@@H]23)c(F)c1 [Example 27, (5aS,8aS)-3-(2,4-difluorophenyl)-7-(tetrahydro-2H-pyran-4-yl)-4,5a,6,7,8,8a-hexahydropyrrolo[3,4-b][1,2,3]triazolo[1,5-d][1,4]oxazine hydrochloride] |  |  |
| 37 nM | > 10 µM | Cl.c1ccc(CN2C[C@@H]3[C@@H](C2)OCc2c(-c4ccccn4)nnn23)cc1 [Example 32, (5aR,8aR)-7-benzyl-3-(pyridin-2-yl)-4,5a,6,7,8,8a-hexahydropyrrolo[3,4-b][1,2,3]triazolo[1,5-d][1,4]oxazine hydrochloride] |  |  |
| 33.3 nM | > 10 µM | Cl.Fc1ccc(-c2nnn3c2CO[C@@H]2CN(CC4CCOCC4)C[C@H]23)c(Cl)c1 [Example 42, (5aR,8aR)-3-(2-chloro-4-fluorophenyl)-7-((tetrahydro-2H-pyran-4-yl)methyl)-4,5a,6,7,8,8a-hexahydropyrrolo[3,4-b][1,2,3]triazolo[1,5-d][1,4]oxazine hydrochloride] |  |  |
| 20.5 nM | > 10 µM | Cl.Fc1ccc(-c2nnn3c2CO[C@H]2CN(CC4CCOCC4)C[C@@H]23)c(Cl)c1 [Example 43, (5aS,8aS)-3-(2-chloro-4-fluorophenyl)-7-((tetrahydro-2H-pyran-4-yl)methyl)-4,5a,6,7,8,8a-hexahydropyrrolo[3,4-b][1,2,3]triazolo[1,5-d][1,4]oxazine hydrochloride] |  |  |
| 15.1 nM | > 10 µM | Cl.Clc1ccc(-c2nnn3c2CO[C@H]2CN(C4CCOCC4)C[C@@H]23)c(Cl)c1 [Example 46, (5aS,8aS)-3-(2,4-dichlorophenyl)-7-(tetrahydro-2H-pyran-4-yl)-4,5a,6,7,8,8a-hexahydropyrrolo[3,4-b][1,2,3]triazolo[1,5-d][1,4]oxazine hydrochloride] |  |  |
| 26.8 nM | > 10 µM | Cl.Fc1ccc(-c2nnn3c2CO[C@@H]2CN(CCC4CCOCC4)C[C@H]23)c(Cl)c1 [Example 47, (5aR,8aR)-3-(2-chloro-4-fluorophenyl)-7-(2-(tetrahydro-2H-pyran-4-yl)ethyl)-4,5a,6,7,8,8a-hexahydropyrrolo[3,4-b][1,2,3]triazolo[1,5-d][1,4]oxazine hydrochloride] |  |  |
| 11.7 nM | > 10 µM | Cl.Fc1ccc(-c2nnn3c2CO[C@H]2CN(CCC4CCOCC4)C[C@@H]23)c(Cl)c1 [Example 48, (5aS,8aS)-3-(2-chloro-4-fluorophenyl)-7-(2-(tetrahydro-2H-pyran-4-yl)ethyl)-4,5a,6,7,8,8a-hexahydropyrrolo[3,4-b][1,2,3]triazolo[1,5-d][1,4]oxazine hydrochloride] |  |  |
